Test results from patent US9938335B2, “Glucagon and GLP-1 co-agonist compounds” (Eli Lilly and Company, priority 2015, dated 2018).
Marks after values point to notes of the source that are not given here.

Legend:
Type in all cases: in vivo, mouse
DIO mice (C57BL/6) [1] = assay: Oral Glucose Tolerance Test (OGTT) in DIO mice; conditions: male DIO mice, OGTT (2 g/kg) 16 hours post injection
Description: Diet-induced obese (DIO) mouse model is a model of insulin resistance. Five to six months old male DIO mice (C57BL/6) from Taconic Biosciences are used in this study. Animals are individually housed in a temperature-controlled (24° C.) facility with a 12 hour light/dark cycle (lights on 06:00), and free access to food and water. The acclimation period to the facility is two weeks. The day before the study, animals are randomized into groups based on their body weight. That same afternoon, animals are fasted in clean cages and dosed with vehicle (40 mM Tris-HCl, pH 8.0) or test articles by subcutaneous injection. The following morning, 16 hours post the peptide injection, fasting body weights are obtained to calculate glucose doses. Blood samples are taken to measure time zero glucose. Animals are then given an oral gavage of glucose (2 g/kg). Two glucose readings via glucometers were obtained at 15, 30, 60 and 120 minutes post oral glucose. The average of two glucose readings is reported at each time point and an area under the curve is calculated. Statistics were analyzed using ANOVA with Dunnett's comparison by JMP 6; significance is denoted at p≤0.05 vs. vehicle.

DIO mice (C57BL/6) [2] = assay: Effects on energy expenditure in DIO mice (indirect calorimetry); conditions: for Cumulative Heat (Kcal/kg lean mass/3 day): test article 15 nmol/kg, semaglutide 60 nmol/kg sc every three days
Description: Seven to eight months old male DIO mice (C57BL/6) weighing 45-50 g are used in this study to assess the effect of compounds of the present invention on energy metabolism. Animals are individually housed in a temperature-controlled (24° C.) facility with a 12 hour light/dark cycle (lights on 22:00), and free access to food (TD95217)(Teklad) and water. After 2 weeks acclimation to the facility, mice are randomized to treatment groups (N=6/group) based on body weight so each group has similar starting mean body weight. Animals are placed in a PhenoMaster/LabMaster calorimeter (TSE Systems, Chesterfield, Mo.) for 8 days of acclimation.
Heat and […] (RER) are measured by indirect calorimetry as described using an open-circuit calorimetry system. RER is the ratio of the volume of CO2 produced (VCO2) to the volume of O2 consumed (VO2). Heat is calculated with lean body weight considered. The energy expenditure is kcal/kg/3 day and expressed as mean±SEM of 6 mice per group. Statistical significance is assessed by two-way ANOVA followed by Tukey's multiple comparison test.

[3] = tested on: STZ-treated DIO mice (C57BL/6); assay: OGTT in Streptozotocin (STZ)-treated DIO mice; conditions: male STZ mice, OGTT (2 g/kg) 16 hours post injection
Description: STZ-treated mouse model is a model of early diabetes. Five to six months old male DIO mice (C57BL/6) from Taconic Biosciences are used in this study. Animals are individually housed in a temperature-controlled (24° C.) facility with a 12 hour light/dark cycle (lights on 6:00), and free access to food and water. After two weeks acclimation to the facility, mice are injected intraperitoneally with 50 mg/kg of STZ on Tuesday and Friday. Two weeks post the injection, animals with glucose levels between 180-300 mg/dL at 09:00 are selected for the OGTT study. The day before the study, animals are randomized into groups based on body weight and their glucose levels. Animals are treated with vehicle or testing articles by subcutaneous injection just prior to food removal overnight (16:00). The following morning at 08:00, 16 hours post compound injection, blood samples are taken to measure time zero glucose. Animals are given an oral dose of glucose of 2 g/kg. Glucose is measured 15, 30, 60, and 120 minutes post the oral glucose challenge. Statistics are analyzed using ANOVA with Dunnett's comparison by JMP 6. Significance is denoted at p≤0.05 vs. vehicle.

DIO mice (C57BL/6) [4] = assay: Chronic treatment in DIO mice (body weight, fat, food intake)
Description: The effects on food intake and body weight/fat are evaluated in DIO mice. Five to six months old DIO mice (C57BL/6) from Taconic Biosciences are used in this study. Animals are individually housed in a temperature-controlled (24° C.) facility with a 12 hour light/dark cycle (lights on 6:00), and free access to food and water. The mice are acclimated to the facility for two weeks. The day before the study start, fat mass is measured by nuclear magnetic resonance (NMR) using an Echo Medical System (Houston, Tex.) instrument. The mice are randomized to treatment groups (N=7/group) based on body weight and fat mass so each group had similar starting mean body weight and fat mass. […] SC injections are made on Day 1, 4, 7, 10, and 13. Body weight and food intake are measured right before each injection throughout the study. Percent changes in body weight are calculated as follows: […]
At the completion of the study, total fat mass is measured again by NMR. Statistics are analyzed using ANOVA with Dunnett's comparison by JMP 6. Significance is denoted at p≤0.05 vs. vehicle.

DIO mice (C57BL/6) [5] = assay: Acute treatment in DIO mice (PCSK9, FGF-21, cholesterol)
Description: In order to investigate metabolic pathways involved with the treatment of compounds of the present invention independent of weight loss, compounds are tested in DIO mice (C57BL/6) acutely. The mice used are three to four months old on a high fat diet for at least 4 weeks. Animals are individually housed in a temperature-controlled (24° C.) facility with a 12 hour light/dark cycle (lights on 6:00), and free access to food and water. Vehicle or testing compounds were administered to mice by subcutaneous injection at 16:00 the day before the study day. Animals were sacrificed 16 hours later to collect blood via cardia puncture. Statistics are analyzed using ANOVA with Dunnett's comparison for JMP-6. Significance is denoted at p≤0.05 vs vehicle.
Food intake was decreased to a similar level in all treatment groups, which may indicate that changes in cholesterol, PCSK9 and FGF-21 are food-intake independent.

[6] = 30 nmol/kg sc every three days for 15 days
[7] = 60 nmol/kg sc every three days for 15 days
[8] = 30 nmol/kg sc, 16 hours post dose

semaglutide [reference compound]
Glucose AUC (% of vehicle) (DIO mice (C57BL/6) [1]; 1 nmol/kg sc): 59* % of vehicle | Glucose AUC (% of vehicle) (DIO mice (C57BL/6) [1]; 3 nmol/kg sc): 51* % of vehicle | Glucose AUC (% of vehicle) (DIO mice (C57BL/6) [1]; 10 nmol/kg sc): 38* % of vehicle | metabolic rate (DIO mice (C57BL/6) [2]; DIO mice, chronic treatment): no effect on metabolic rate | Cumulative Heat (Kcal/kg lean mass/3 day) (DIO mice (C57BL/6) [2]; Day 1 to Day 4): 1973 ± 51 Kcal/kg lean mass/3 day | Cumulative Heat (Kcal/kg lean mass/3 day) (DIO mice (C57BL/6) [2]; Day 4 to Day 7): 2018 ± 54 Kcal/kg lean mass/3 day | Cumulative Heat (Kcal/kg lean mass/3 day) (DIO mice (C57BL/6) [2]; Day 7 to Day 10): 2151 ± 48 Kcal/kg lean mass/3 day | Cumulative Heat (Kcal/kg lean mass/3 day) (DIO mice (C57BL/6) [2]; Day 10 to Day 13): 2138 ± 46 Kcal/kg lean mass/3 day | Glucose AUC (% of vehicle) ([3]; 1 nmol/kg sc): 72* % of vehicle | Glucose AUC (% of vehicle) ([3]; 3 nmol/kg sc): 53* % of vehicle | Glucose AUC (% of vehicle) ([3]; 10 nmol/kg sc): 35* % of vehicle | Body Fat (% change vs. vehicle from Day 1) (DIO mice (C57BL/6) [4]; [6]): −20* % | Body Weight (% change vs. vehicle from Day 1) (DIO mice (C57BL/6) [4]; [6]): −8% | Body Fat (% change vs. vehicle from Day 1) (DIO mice (C57BL/6) [4]; [7]): −29* % | Body Weight (% change vs. vehicle from Day 1) (DIO mice (C57BL/6) [4]; [7]): −12* % | Cholesterol (% of vehicle) (DIO mice (C57BL/6) [5]; [8]): 117.6 % of vehicle | FGF-21 (% of vehicle) (DIO mice (C57BL/6) [5]; [8]): 75 % of vehicle | PCSK9 (% of vehicle) (DIO mice (C57BL/6) [5]; [8]): 115.3 % of vehicle | serum cholesterol, PCSK9 and FGF-21 levels (DIO mice (C57BL/6) [5]; acute treatment): does not decrease serum cholesterol and PCSK9 levels and increase FGF-21 levels
